Laboratory results as given in ChEMBL document CHEMBL5465560, “Selectivity Literature for EUbOPEN Chemogenomic Library” (2024).
Values belong to the compound of their own block, whether it stands above or below them.

Assays:
[1] = target: Serine/threonine-protein kinase WNK1 (Homo sapiens) (UniProt Q9H4A3); assay: Selectivity interaction (KinomeScan (DiscoverX)) EUB0000229b WNK1; settings: at 10 µM
[2] = target: Tyrosine-protein kinase FRK (Homo sapiens) (UniProt P42685); assay: Selectivity interaction (KinomeScan (DiscoverX)) EUB0000655a FRK; settings: at 10 µM
Chain of Tyrosine-protein kinase FRK (Homo sapiens) (P42685 whole entry): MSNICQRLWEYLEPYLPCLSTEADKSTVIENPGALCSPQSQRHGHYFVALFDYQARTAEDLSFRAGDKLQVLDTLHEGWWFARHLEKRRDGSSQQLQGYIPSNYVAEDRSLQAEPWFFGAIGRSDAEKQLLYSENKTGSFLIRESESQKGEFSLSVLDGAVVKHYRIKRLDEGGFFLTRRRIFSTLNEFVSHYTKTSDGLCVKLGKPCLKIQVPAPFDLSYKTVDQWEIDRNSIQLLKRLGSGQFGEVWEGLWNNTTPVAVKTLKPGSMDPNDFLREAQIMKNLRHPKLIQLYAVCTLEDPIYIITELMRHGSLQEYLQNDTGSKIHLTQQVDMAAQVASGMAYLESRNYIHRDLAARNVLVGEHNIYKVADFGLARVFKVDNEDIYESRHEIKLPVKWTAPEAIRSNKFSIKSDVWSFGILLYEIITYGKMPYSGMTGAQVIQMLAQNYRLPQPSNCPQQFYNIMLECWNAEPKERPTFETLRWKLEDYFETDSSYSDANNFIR

[3] = target: T1, Ephrin type-A receptor 1 (Homo sapiens) (UniProt P21709); assay: Selectivity interaction (ProQinase) EUB0000171b EPHA1
T1 sequence (whole entry): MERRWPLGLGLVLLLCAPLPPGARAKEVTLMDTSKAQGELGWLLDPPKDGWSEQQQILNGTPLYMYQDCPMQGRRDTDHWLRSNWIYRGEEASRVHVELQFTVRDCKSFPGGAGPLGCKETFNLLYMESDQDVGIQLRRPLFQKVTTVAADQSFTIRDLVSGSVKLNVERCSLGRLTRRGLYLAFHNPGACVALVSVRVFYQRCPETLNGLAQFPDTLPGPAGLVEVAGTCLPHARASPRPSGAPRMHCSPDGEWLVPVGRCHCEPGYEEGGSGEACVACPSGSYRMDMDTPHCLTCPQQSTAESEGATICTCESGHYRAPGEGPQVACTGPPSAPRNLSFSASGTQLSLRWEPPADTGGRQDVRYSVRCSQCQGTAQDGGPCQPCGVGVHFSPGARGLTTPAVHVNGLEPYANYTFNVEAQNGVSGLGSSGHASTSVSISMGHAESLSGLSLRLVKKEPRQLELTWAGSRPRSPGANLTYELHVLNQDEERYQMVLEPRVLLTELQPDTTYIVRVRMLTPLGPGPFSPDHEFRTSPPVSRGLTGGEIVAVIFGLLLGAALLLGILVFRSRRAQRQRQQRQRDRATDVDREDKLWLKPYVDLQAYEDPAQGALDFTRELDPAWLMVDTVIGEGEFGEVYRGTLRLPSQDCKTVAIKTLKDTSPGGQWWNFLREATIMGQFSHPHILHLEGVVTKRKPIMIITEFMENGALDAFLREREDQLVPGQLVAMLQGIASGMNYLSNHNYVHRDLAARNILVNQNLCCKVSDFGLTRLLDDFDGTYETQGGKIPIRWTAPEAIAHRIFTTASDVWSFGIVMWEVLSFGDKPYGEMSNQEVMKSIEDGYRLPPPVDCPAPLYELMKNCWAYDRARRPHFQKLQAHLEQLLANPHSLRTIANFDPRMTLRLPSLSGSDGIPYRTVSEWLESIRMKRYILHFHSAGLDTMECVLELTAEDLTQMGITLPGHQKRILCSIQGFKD

[4] = target: T2, Dual specificity mitogen-activated protein kinase kinase 4 (Homo sapiens) (UniProt P45985); assay: Selectivity interaction (ProQinase) EUB0000171b MAP2K4
T2 sequence (whole entry): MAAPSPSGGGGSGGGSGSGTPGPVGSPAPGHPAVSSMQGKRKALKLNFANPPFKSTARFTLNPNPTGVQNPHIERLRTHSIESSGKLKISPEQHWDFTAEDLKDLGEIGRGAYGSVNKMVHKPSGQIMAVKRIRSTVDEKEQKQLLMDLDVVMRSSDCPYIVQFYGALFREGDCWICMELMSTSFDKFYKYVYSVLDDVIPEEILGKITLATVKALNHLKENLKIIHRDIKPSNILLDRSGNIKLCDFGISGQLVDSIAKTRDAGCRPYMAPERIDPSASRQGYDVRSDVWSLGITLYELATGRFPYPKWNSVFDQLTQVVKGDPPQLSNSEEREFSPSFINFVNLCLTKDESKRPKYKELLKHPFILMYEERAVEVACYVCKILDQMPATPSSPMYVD

[5] = target: T3, Membrane-associated tyrosine- and threonine-specific cdc2-inhibitory kinase (Homo sapiens) (UniProt Q99640); assay: Selectivity interaction (Kinase panel (DSF assay)) EUB0001559a PKMYT1
T3 sequence (whole entry): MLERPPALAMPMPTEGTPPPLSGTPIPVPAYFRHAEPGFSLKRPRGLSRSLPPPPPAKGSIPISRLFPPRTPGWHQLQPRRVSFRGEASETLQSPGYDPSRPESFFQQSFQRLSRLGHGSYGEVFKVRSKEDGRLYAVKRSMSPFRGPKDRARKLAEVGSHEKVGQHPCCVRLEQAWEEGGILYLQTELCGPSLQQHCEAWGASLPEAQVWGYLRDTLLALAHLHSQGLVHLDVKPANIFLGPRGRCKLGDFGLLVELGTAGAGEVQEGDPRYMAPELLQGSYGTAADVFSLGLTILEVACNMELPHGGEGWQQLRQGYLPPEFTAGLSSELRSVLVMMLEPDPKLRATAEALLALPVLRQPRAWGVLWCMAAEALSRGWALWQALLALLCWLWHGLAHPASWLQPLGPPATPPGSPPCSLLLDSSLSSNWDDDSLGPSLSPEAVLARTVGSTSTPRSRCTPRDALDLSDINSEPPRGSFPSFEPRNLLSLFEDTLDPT

[6] = target: Serine/threonine-protein kinase MRCK gamma (Homo sapiens) (UniProt Q6DT37); assay: Selectivity interaction (Kinase panel (Z-LYTE Assay)) EUB0001632a CDC42BPG; settings: at 10 µM
Chain of Serine/threonine-protein kinase MRCK gamma (Homo sapiens) (Q6DT37 whole entry): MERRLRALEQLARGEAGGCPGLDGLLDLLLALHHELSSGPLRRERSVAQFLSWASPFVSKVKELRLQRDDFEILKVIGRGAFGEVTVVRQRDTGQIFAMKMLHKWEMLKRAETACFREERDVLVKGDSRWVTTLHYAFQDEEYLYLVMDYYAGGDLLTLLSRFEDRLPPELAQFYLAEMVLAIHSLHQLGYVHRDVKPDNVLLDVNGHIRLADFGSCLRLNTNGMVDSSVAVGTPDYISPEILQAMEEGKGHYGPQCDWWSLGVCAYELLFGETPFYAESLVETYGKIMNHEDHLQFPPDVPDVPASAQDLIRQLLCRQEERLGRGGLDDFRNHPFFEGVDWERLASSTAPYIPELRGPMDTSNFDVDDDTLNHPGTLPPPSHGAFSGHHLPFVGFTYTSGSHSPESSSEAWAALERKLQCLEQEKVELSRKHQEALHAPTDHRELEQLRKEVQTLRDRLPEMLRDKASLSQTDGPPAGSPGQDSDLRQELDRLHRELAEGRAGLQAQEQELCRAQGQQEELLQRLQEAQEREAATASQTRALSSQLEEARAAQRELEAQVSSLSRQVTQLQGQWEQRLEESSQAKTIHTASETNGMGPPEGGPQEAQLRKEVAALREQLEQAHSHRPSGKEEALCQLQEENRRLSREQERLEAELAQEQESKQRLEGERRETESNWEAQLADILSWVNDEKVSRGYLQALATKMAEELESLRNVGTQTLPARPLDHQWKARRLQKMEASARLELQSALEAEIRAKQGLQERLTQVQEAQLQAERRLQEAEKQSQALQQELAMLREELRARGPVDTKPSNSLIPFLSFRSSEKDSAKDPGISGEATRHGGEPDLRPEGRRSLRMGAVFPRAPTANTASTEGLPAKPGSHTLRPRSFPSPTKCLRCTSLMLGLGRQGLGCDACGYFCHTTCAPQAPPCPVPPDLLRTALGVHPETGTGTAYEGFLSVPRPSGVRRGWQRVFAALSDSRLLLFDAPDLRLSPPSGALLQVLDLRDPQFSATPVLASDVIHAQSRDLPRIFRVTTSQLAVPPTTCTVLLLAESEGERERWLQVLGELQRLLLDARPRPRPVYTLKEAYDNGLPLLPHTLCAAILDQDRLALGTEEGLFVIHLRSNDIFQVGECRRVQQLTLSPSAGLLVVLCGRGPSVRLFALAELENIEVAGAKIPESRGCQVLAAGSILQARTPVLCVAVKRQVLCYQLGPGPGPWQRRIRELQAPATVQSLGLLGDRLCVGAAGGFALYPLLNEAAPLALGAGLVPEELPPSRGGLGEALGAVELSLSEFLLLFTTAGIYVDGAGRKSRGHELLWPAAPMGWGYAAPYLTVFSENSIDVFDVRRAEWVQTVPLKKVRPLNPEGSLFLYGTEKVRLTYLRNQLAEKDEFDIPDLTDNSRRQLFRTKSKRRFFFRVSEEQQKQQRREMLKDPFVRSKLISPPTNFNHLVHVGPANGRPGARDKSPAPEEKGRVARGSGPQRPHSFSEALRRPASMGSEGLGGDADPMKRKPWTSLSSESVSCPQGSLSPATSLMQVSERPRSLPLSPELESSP

[7] = target: Protein-tyrosine kinase 2-beta (Homo sapiens) (UniProt Q14289); assay: Selectivity interaction (Kinase panel (Z-LYTE Assay)) EUB0001632a PTK2B; settings: at 10 µM
Chain of Protein-tyrosine kinase 2-beta (Homo sapiens) (Q14289 whole entry, looked up): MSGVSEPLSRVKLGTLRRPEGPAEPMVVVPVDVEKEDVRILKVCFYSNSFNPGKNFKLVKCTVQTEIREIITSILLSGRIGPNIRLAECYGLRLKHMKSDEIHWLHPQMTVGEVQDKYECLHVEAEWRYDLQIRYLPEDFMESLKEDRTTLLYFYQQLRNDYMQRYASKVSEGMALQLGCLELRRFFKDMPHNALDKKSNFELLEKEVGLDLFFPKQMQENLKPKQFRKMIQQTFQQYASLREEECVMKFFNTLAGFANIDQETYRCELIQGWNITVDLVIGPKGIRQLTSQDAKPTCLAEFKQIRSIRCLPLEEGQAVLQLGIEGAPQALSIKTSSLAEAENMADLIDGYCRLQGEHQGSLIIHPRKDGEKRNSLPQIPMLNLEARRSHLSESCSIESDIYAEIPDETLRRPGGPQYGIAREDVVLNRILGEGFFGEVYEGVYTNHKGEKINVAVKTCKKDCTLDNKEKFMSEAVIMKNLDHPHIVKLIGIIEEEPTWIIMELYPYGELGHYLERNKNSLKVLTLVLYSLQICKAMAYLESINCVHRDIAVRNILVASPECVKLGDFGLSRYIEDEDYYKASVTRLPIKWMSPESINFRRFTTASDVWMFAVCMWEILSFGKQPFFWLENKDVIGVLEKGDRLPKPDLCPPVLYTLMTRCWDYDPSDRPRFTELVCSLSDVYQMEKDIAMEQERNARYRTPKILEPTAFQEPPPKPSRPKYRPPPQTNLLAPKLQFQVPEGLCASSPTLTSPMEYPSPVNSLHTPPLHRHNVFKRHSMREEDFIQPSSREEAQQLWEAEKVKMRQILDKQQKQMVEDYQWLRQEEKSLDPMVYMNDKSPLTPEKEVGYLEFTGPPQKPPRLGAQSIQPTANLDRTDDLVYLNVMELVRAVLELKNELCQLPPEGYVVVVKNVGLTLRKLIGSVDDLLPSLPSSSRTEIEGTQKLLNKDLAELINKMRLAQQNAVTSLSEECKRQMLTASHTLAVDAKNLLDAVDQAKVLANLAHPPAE

[8] = target: Tyrosine-protein kinase Lyn (Homo sapiens, UniProt P07948); assay: Selectivity interaction (ActivX KiNativ screen (kinase selectivity in THP-1 cell lysates)) EUB0000639a LYN; assay type: subcellular; settings: lysate, at 0.04 µM
Chain of Tyrosine-protein kinase Lyn (P07948 2-512 limits assumed): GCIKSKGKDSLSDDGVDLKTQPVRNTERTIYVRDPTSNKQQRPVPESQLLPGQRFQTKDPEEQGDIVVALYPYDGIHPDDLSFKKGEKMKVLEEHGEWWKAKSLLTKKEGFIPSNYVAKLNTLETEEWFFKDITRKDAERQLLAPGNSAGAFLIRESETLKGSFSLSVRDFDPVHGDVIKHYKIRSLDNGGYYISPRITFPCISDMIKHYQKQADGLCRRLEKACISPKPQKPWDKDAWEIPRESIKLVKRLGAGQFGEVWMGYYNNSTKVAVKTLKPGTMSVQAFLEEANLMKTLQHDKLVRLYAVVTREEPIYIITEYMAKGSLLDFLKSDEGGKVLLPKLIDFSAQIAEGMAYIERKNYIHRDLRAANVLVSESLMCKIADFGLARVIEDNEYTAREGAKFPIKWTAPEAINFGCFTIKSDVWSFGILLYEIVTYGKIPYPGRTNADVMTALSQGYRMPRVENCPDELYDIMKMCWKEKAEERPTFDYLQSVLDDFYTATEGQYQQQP

[9] = target: NT-3 growth factor receptor (Homo sapiens, UniProt Q16288); assay: Selectivity interaction (SelectScreen profiling (Invitrogen)) EUB0000607a NTRK3; settings: at 2 µM
Chain of NT-3 growth factor receptor (Q16288 32-839 limits assumed): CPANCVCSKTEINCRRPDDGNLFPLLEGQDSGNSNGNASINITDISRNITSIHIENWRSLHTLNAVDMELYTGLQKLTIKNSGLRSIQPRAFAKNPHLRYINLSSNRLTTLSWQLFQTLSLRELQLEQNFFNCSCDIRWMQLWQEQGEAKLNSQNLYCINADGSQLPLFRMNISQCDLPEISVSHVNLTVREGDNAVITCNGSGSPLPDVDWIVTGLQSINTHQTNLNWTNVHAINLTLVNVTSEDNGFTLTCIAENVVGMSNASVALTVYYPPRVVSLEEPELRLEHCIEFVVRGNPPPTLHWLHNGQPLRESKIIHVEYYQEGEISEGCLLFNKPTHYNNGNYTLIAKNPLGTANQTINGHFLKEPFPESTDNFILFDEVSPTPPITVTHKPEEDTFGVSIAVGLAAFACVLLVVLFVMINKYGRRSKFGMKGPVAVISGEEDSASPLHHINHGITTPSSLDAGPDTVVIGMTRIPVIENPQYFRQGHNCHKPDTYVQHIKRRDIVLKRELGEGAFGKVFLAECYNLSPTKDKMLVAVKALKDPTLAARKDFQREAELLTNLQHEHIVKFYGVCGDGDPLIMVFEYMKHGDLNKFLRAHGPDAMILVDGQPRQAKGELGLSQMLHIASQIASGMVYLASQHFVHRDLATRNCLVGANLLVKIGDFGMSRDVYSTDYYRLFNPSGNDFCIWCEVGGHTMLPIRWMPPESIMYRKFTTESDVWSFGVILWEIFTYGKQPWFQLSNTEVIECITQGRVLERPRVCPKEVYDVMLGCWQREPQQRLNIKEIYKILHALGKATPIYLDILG

[10] = target: T4, Activin receptor type-1 (Homo sapiens) (UniProt Q04771); assay: Selectivity interaction (KinomeScan (DiscoverX)) EUB0000607a ACVR1; settings: at 10 µM
T4 sequence (whole entry): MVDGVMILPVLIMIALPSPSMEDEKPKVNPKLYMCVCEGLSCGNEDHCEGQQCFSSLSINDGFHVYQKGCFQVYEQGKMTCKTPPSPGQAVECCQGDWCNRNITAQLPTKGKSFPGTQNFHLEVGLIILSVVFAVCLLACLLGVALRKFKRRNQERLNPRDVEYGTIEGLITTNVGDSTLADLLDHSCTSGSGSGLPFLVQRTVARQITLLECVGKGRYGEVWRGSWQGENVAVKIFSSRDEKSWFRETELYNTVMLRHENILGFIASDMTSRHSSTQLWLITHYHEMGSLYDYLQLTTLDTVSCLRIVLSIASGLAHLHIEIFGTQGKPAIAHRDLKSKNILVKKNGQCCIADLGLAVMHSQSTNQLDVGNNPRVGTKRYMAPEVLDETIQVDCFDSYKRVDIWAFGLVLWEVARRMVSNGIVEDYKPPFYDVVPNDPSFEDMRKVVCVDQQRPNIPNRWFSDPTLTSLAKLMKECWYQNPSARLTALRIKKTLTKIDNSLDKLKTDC

SMILES: COc1cc(N(C)c2ccnc3ccc(C(F)(F)F)cc23)cc(OC)c1OC
% binding [1]: 72%

SMILES: CN(C)CCOc1ccc(-c2nc(-c3ccncc3)c(-c3ccc4c(c3)CC/C4=N\O)[nH]2)cc1
% of control [2]: 96%

SMILES: Cn1cc(-n2cnc3c(NCc4nc5cc(Cl)c(Cl)cc5[nH]4)nc(N4CCOCC4)nc32)cn1
% of control [6]: 2.69%
% of control [7]: 6.24%

SMILES: CNC(=O)Nc1ccc(-c2nc(N3CC4CCC(C3)O4)c3cnn(C4CCC5(CC4)OCCO5)c3n2)cc1
% of inhibition [9]: 5%
% of control [10]: 90%

The remaining lines, values ahead:

% of control ([3]; at 1 µM): 90%
% of control ([3]; at 5 µM): 63%
% of control ([4]; at 1 µM): 71%
% of control ([4]; at 5 µM): 90%
SMILES: C=CC(=O)Nc1cccc(C(=O)Nc2ccc(Nc3cc(-c4[nH]c(SC)nc4C)ccn3)cc2)c1

dTM [5]: 0.4 K
SMILES: CN(C(=O)c1cnn2cccnc12)c1cc2c(cc1N1CCOCC1)C(=O)N(C[C@@H](F)C(C)(C)O)C2

% of inhibition [8]: -15.2%
SMILES: CC[C@@H]1[C@H](F)C(=O)N[C@@H]1COc1nccc2cc(C(N)=O)c(OC)cc12 [ZIMLOVISERTIB]
